Reference: PMC5487684, “Safety, Pharmacokinetics, and Antiviral Activity of a Novel HIV Antiviral, ABX464, in Treatment-Naive HIV-Infected Subjects in a Phase 2 Randomized, Controlled Study” (Antimicrobial Agents and Chemotherapy, 2017)

Tested on: HIV
Assay: HIV viral load (HIV-1 RNA copies per milliliter) in treatment-naive HIV-infected patients
Format: in vivo
Procedure: Safety assessments and laboratory tests were carried out according to the schedules described in Table S4 for groups dosed every day, every 3 days, and 3 times a day. Follow-up visits were scheduled for 7 days after the last dose and subsequently once every week in order to assess the elimination of the main ABX464 metabolite and to assess the viral load. Follow-up visits were terminated when the virus load was within 0.5 log of the baseline value or after 3 follow-up visits, whichever came first. Prior to the statistical analyses, AEs were coded using the Medical Dictionary for Regulatory Activities (MedDRA dictionary; last available version) in order to be tabulated by system organ class (SOC) and preferred term (PT). The AEs were analyzed according to the treatment emergence phase from the first study drug administration on day 1 up to 48 h after the last study drug administration. The number and percentage of subjects with at least one TEAE were tabulated by SOC and PT for each group and dose. The number of occurrences of TEAEs was also analyzed in the same way by SOC and PT for each group and dose, by grade of severity for each group and dose, and by level of causality to the study drug for each group and dose.
Plasma samples were analyzed for ABX464 and ABX464-NGlc using validated bioanalytical methods by Atlanbio (Saint Nazaire, France) according to good laboratory practices. Pharmacokinetic parameters were calculated by noncompartmental analysis (NCA), using Phoenix WinNonlin software (Pharsight Corporation) running on a personal computer. On day 1, the following PK parameters were generated: Cmax, the time to Cmax (Tmax), lag time (tlag), elimination rate constant (kel), area under the concentration-time curve (AUC) from time zero to time t (AUC0–t), AUC from time zero to infinity (AUC0–∞), apparent clearance (CL/F), and apparent volume of distribution (V/F). On the other days of PK assessment, only Cmax, Tmax, tlag, kel, and AUC0–t were generated. The secondary analysis concerned pharmacodynamic (PD) activity, as expressed by CD4 and CD8 levels and viral load across time. The HIV viral load was analyzed in the prequalified individual local study center laboratories. CD4 and CD8 cell counts were also determined in the local study center laboratories. With respect to the viral load, changes in the log-transformed viral load values between 24 h postdose and predose were calculated on each day, and a comparison between each dose level and pooled placebo data was made. Moreover, the rate of success (defined as a decrease in the viral load value of at least 0.5 log) was evaluated for each treatment (including placebo) and compared between treatments.
No formal sample size determination was done. The aim of the study was to obtain reliable and consistent data and to expose a limited number of subjects to ABX464. To achieve this aim, six subjects per group received ABX464. A mixed model analysis of covariance of the changes in the viral load compared to that at the baseline was conducted on log-transformed values. Baseline parameters and age were covariates, treatment groups were fixed effects, and subjects were random effects.

SMILES: FC(F)(F)Oc1ccc(Nc2ccc3cccc(Cl)c3n2)cc1 [ABX464]
- Subjects demonstrating an antiviral response (75 mg once a day): 16%
- Subjects demonstrating an antiviral response (100 mg once a day): 33%
- Subjects demonstrating an antiviral response (150 mg once a day): 66%
- Mixed model analysis, RNA viral load Day 2 to Day 14, Treatment Group Estimate (ABX464 150 mg once a day vs. Placebo): -0.1559
- Measurements demonstrating a 0.5 log10 decrease over the treatment period (ABX464-treated subjects): 49 measurements
- Change in log10 no. of RNA copies/ml from that at the baseline (Group 1 (25 mg every 3 days, fasted), subject 102, day 4): −0.99 log10 no. of RNA copies/ml
- Change in log10 no. of RNA copies/ml from that at the baseline (Group 1 (25 mg every 3 days, fasted), subject 102, day 5): −1.47 log10 no. of RNA copies/ml
- Change in log10 no. of RNA copies/ml from that at the baseline (Group 1 (25 mg every 3 days, fasted), subject 102, day 7): −1.36 log10 no. of RNA copies/ml
- Change in log10 no. of RNA copies/ml from that at the baseline (Group 1 (25 mg every 3 days, fasted), subject 102, day 8): −1.57 log10 no. of RNA copies/ml
- Change in log10 no. of RNA copies/ml from that at the baseline (Group 1 (25 mg every 3 days, fasted), subject 102, day 10): −1.43 log10 no. of RNA copies/ml
- Change in log10 no. of RNA copies/ml from that at the baseline (Group 1 (25 mg every 3 days, fasted), subject 102, day 11): −1.61 log10 no. of RNA copies/ml
- Change in log10 no. of RNA copies/ml from that at the baseline (Group 1 (25 mg every 3 days, fasted), subject 102, day 13): −1.4 log10 no. of RNA copies/ml
- Change in log10 no. of RNA copies/ml from that at the baseline (Group 1 (25 mg every 3 days, fasted), subject 102, day 14): −1.51 log10 no. of RNA copies/ml
- Change in log10 no. of RNA copies/ml from that at the baseline (Group 1 (25 mg every 3 days, fasted), subject 105, day 14): −0.5 log10 no. of RNA copies/ml
- Change in log10 no. of RNA copies/ml from that at the baseline (Group 1 (25 mg every 3 days, fasted), subject 105, day 16): −0.52 log10 no. of RNA copies/ml
- Change in log10 no. of RNA copies/ml from that at the baseline (Group 1 (25 mg every 3 days, fasted), subject 105, day 17): −0.65 log10 no. of RNA copies/ml
- Change in log10 no. of RNA copies/ml from that at the baseline (Group 1 (25 mg every 3 days, fasted), subject 106, day 5): −0.72 log10 no. of RNA copies/ml
- Change in log10 no. of RNA copies/ml from that at the baseline (Group 1 (25 mg every 3 days, fasted), subject 106, day 11): −0.56 log10 no. of RNA copies/ml
- Change in log10 no. of RNA copies/ml from that at the baseline (Group 1 (25 mg every 3 days, fasted), subject 106, day 13): −0.62 log10 no. of RNA copies/ml
- Change in log10 no. of RNA copies/ml from that at the baseline (Group 1 (25 mg every 3 days, fasted), subject 106, day 16): −0.74 log10 no. of RNA copies/ml
- Change in log10 no. of RNA copies/ml from that at the baseline (Group 1 (25 mg every 3 days, fasted), subject 106, day 17): −0.51 log10 no. of RNA copies/ml
- Change in log10 no. of RNA copies/ml from that at the baseline (Group 1 (25 mg every 3 days, fasted), subject 106, day 19): −0.61 log10 no. of RNA copies/ml
- Change in log10 no. of RNA copies/ml from that at the baseline (Group 2 (25 mg q.d., fasted), subject 201, day 14): −0.54 log10 no. of RNA copies/ml
- Change in log10 no. of RNA copies/ml from that at the baseline (Group 4 (50 mg t.i.d., fed), subject 2007, day 10): −0.62 log10 no. of RNA copies/ml
- Change in log10 no. of RNA copies/ml from that at the baseline (Group 4 (50 mg t.i.d., fed), subject 2009, day 10): −0.72 log10 no. of RNA copies/ml
- Change in log10 no. of RNA copies/ml from that at the baseline (Group 4 (50 mg t.i.d., fed), subject 2009, day 14): −1.23 log10 no. of RNA copies/ml
- Change in log10 no. of RNA copies/ml from that at the baseline (Group 4 (50 mg t.i.d., fed), subject 2009, day 18): −1.39 log10 no. of RNA copies/ml
- Change in log10 no. of RNA copies/ml from that at the baseline (Group 5 (75 mg q.d., fed), subject 605, day 2): −0.71 log10 no. of RNA copies/ml
- Change in log10 no. of RNA copies/ml from that at the baseline (Group 5 (75 mg q.d., fed), subject 605, day 4): −0.77 log10 no. of RNA copies/ml
- Change in log10 no. of RNA copies/ml from that at the baseline (Group 5 (75 mg q.d., fed), subject 605, day 5): −0.76 log10 no. of RNA copies/ml
- Change in log10 no. of RNA copies/ml from that at the baseline (Group 5 (75 mg q.d., fed), subject 605, day 7): −0.89 log10 no. of RNA copies/ml
- Change in log10 no. of RNA copies/ml from that at the baseline (Group 5 (75 mg q.d., fed), subject 605, day 8): −0.83 log10 no. of RNA copies/ml
- Change in log10 no. of RNA copies/ml from that at the baseline (Group 5 (75 mg q.d., fed), subject 605, day 10): −1.06 log10 no. of RNA copies/ml
- Change in log10 no. of RNA copies/ml from that at the baseline (Group 5 (75 mg q.d., fed), subject 605, day 11): −1.05 log10 no. of RNA copies/ml
- Change in log10 no. of RNA copies/ml from that at the baseline (Group 6 (100 mg q.d., fasted), subject 804, day 11): −0.52 log10 no. of RNA copies/ml
- Change in log10 no. of RNA copies/ml from that at the baseline (Group 6 (100 mg q.d., fasted), subject 804, day 15): −0.59 log10 no. of RNA copies/ml
- Change in log10 no. of RNA copies/ml from that at the baseline (Group 6 (100 mg q.d., fasted), subject 807, day 11): −0.51 log10 no. of RNA copies/ml
- Change in log10 no. of RNA copies/ml from that at the baseline (Group 6 (100 mg q.d., fasted), subject 807, day 18): −1.44 log10 no. of RNA copies/ml
- Change in log10 no. of RNA copies/ml from that at the baseline (Group 7 (150 mg every 3 days, fed), subject 908, day 16): −0.72 log10 no. of RNA copies/ml
- Change in log10 no. of RNA copies/ml from that at the baseline (Group 7 (150 mg every 3 days, fed), subject 908, day 19): −0.53 log10 no. of RNA copies/ml
